Data on seven molecules can be found in ChEMBL document CHEMBL1129485, “Bis(31/31') ([CYS(31), Trp(32), Nva(34)] NPY-(31-36)): a specific NPY Y-1 receptor antagonist” (J Med Chem, 1996).

Positions of bridges follow the written chain, without caps; N, C: chain ends. Non-standard residues stand in square brackets, D forms with d. Residues, ends and D or L forms follow the SMILES beside them. Chains are numbered I, II in the order given. Nva = CCC[C@H](N)C(=O)O

Experiment [1] concerns the target T1, Neuropeptide Y receptor type 2 (Homo sapiens, UniProt P49146).
T1 sequence (P49146 whole entry): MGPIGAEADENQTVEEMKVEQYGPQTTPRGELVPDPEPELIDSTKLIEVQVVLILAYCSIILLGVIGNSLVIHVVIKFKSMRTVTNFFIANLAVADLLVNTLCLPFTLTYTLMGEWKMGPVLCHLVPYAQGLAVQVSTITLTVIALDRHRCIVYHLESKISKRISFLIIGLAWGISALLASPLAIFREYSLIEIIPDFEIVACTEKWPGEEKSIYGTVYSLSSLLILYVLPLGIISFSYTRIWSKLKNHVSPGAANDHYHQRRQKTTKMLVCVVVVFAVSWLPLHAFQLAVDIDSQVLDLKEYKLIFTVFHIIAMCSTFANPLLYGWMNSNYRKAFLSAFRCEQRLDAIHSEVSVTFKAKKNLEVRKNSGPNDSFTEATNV
As to the kind of experiment: Compound was tested for the displacement of [125I]-PYY(3-36) (SK-N-BE2) from Neuropeptide Y receptor type 2 in the membranes prepared from cells. It counts as cell membranes.

In experiment [2] the target is T2, Neuropeptide Y receptor type 1 (Homo sapiens, UniProt P25929).
T2 sequence (P25929 whole entry): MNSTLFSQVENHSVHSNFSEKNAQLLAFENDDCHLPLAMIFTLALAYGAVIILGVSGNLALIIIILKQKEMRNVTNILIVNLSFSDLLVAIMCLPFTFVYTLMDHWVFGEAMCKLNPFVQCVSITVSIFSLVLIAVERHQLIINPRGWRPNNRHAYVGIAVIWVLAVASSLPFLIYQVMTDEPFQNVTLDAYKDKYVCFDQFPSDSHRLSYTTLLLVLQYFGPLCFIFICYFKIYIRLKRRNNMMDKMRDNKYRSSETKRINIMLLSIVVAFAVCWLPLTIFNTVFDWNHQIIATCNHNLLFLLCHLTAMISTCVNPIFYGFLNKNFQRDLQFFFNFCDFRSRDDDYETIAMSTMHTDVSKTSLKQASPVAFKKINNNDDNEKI
As to the kind of experiment: Compound was tested for the displacement of [125I]-PYY (SK-N-MC) from Neuropeptide Y receptor type 1 in the membranes prepared from cells. Format: cell membranes. A general note: Displacement assays read how much labelled ligand stays bound in the presence of the test substance.

For `CCC[C@H](NC(=O)[C@H](CCCN=C(N)N)NC(=O)[C@@H](Cc1c[nH]c2ccccc12)NC(=O)[C@H](CSSC[C@H](NC(=O)[C@H](CC(C)C)NC(=O)[C@H](Cc1c[nH]c2ccccc12)NC(=O)[C@@H](N)Cc1ccc(O)cc1)C(=O)N[C@H](Cc1c[nH]c2ccccc12)C(=O)N[C@@H](CCCN=C(N)N)C(=O)N[C@@H](CCC)C(=O)N[C@@H](CCCN=C(N)N)C(=O)N[C@@H](Cc1ccc(O)cc1)C(N)=O)NC(=O)[C@H](CC(C)C)NC(=O)[C@H](Cc1c[nH]c2ccccc12)NC(=O)[C@@H](N)Cc1ccc(O)cc1)C(=O)N[C@@H](CCCN=C(N)N)C(=O)N[C@@H](Cc1ccc(O)cc1)C(N)=O`, the figures for the Ki in experiment [1] and in experiment [2] were 704 nM and 143 nM, respectively.
`CCC[C@H](NC(=O)[C@H](CCCN=C(N)N)NC(=O)[C@H](Cc1c[nH]c2ccccc12)NC(=O)[C@H](CSSC[C@H](NC(=O)[C@H](CC(C)C)NC(=O)[C@H](Cc1c[nH]c2ccccc12)NC(=O)[C@@H](N)Cc1ccc(O)cc1)C(=O)N[C@@H](Cc1c[nH]c2ccccc12)C(=O)N[C@@H](CCCN=C(N)N)C(=O)N[C@@H](CCC)C(=O)N[C@@H](CCCN=C(N)N)C(=O)N[C@@H](Cc1ccc(O)cc1)C(N)=O)NC(=O)[C@H](CC(C)C)NC(=O)[C@H](Cc1c[nH]c2ccccc12)NC(=O)[C@@H](N)Cc1ccc(O)cc1)C(=O)N[C@@H](CCCN=C(N)N)C(=O)N[C@@H](Cc1ccc(O)cc1)C(N)=O`: the Ki in experiment [1] is 621 nM; in experiment [2], 93 nM.
Consider `CCC[C@H](NC(=O)[C@H](CCCNC(=N)N)NC(=O)[C@H](Cc1c[nH]c2ccccc12)NC(=O)[C@@H](N)CSSC[C@H](N)C(=O)N[C@@H](Cc1c[nH]c2ccccc12)C(=O)N[C@@H](CCCNC(=N)N)C(=O)N[C@@H](CCC)C(=O)N[C@@H](CCCNC(=N)N)C(=O)N[C@@H](Cc1ccc(O)cc1)C(N)=O)C(=O)N[C@@H](CCCNC(=N)N)C(=O)N[C@@H](Cc1ccc(O)cc1)C(N)=O` (I: H-CWR[Nva]RY-NH2 / II: H-CWR[Nva]RY-NH2; disulfide I:1-II:1), for which the Ki in experiment [1] was above 10000 nM; in experiment [2] it was 46 nM.
For `CCC[C@H](NC(=O)[C@H](CCCN=C(N)N)NC(=O)[C@@H](NC(=O)[C@H](CSSC[C@H](NC(=O)[C@H](CC(C)C)NC(=O)[C@@H](NC(=O)[C@@H](N)Cc1ccc(O)cc1)[C@@H](C)CC)C(=O)N[C@H](C(=O)N[C@@H](CCCN=C(N)N)C(=O)N[C@@H](CCC)C(=O)N[C@@H](CCCN=C(N)N)C(=O)N[C@@H](Cc1ccc(O)cc1)C(N)=O)[C@@H](C)O)NC(=O)[C@H](CC(C)C)NC(=O)[C@@H](NC(=O)[C@@H](N)Cc1ccc(O)cc1)[C@@H](C)CC)[C@@H](C)O)C(=O)N[C@@H](CCCN=C(N)N)C(=O)N[C@@H](Cc1ccc(O)cc1)C(N)=O` (I: H-YILCTR[Nva]RY-NH2 / II: H-YILCTR[Nva]RY-NH2; disulfide I:4-II:4) the same measures were 3980 nM and 49 nM.
For `CCC[C@H](NC(=O)[C@H](CCCNC(=N)N)NC(=O)[C@H](Cc1c[nH]c2ccccc12)NC(=O)[C@H](CSSC[C@H](NC(=O)[C@H](CC(C)C)NC(=O)[C@@H](NC(=O)[C@@H](N)Cc1ccc(O)cc1)[C@@H](C)CC)C(=O)N[C@@H](Cc1c[nH]c2ccccc12)C(=O)N[C@@H](CCCNC(=N)N)C(=O)N[C@@H](CCC)C(=O)N[C@@H](CCCNC(=N)N)C(=O)N[C@@H](Cc1ccc(O)cc1)C(N)=O)NC(=O)[C@H](CC(C)C)NC(=O)[C@@H](NC(=O)[C@@H](N)Cc1ccc(O)cc1)[C@@H](C)CC)C(=O)N[C@@H](CCCNC(=N)N)C(=O)N[C@@H](Cc1ccc(O)cc1)C(N)=O` (I: H-YILCWR[Nva]RY-NH2 / II: H-YILCWR[Nva]RY-NH2; disulfide I:4-II:4) the same measures were 988 nM and 95 nM.
For `CCC[C@H](NC(=O)[C@H](CCCN=C(N)N)NC(=O)[C@@H](NC(=O)[C@H](CSSC[C@H](NC(=O)[C@H](CC(C)C)NC(=O)[C@H](CC(N)=O)NC(=O)[C@@H](NC(=O)[C@@H](N)Cc1ccc(O)cc1)[C@@H](C)CC)C(=O)N[C@H](C(=O)N[C@@H](CCCN=C(N)N)C(=O)N[C@@H](CCC)C(=O)N[C@@H](CCCN=C(N)N)C(=O)N[C@@H](Cc1ccc(O)cc1)C(N)=O)[C@@H](C)O)NC(=O)[C@H](CC(C)C)NC(=O)[C@H](CC(N)=O)NC(=O)[C@@H](NC(=O)[C@@H](N)Cc1ccc(O)cc1)[C@@H](C)CC)[C@@H](C)O)C(=O)N[C@@H](CCCN=C(N)N)C(=O)N[C@@H](Cc1ccc(O)cc1)C(N)=O` (I: H-YINLCTR[Nva]RY-NH2 / II: H-YINLCTR[Nva]RY-NH2; disulfide I:5-II:5) the same measures were 2080 nM and 36 nM.
Consider `CCC[C@H](NC(=O)[C@H](CCCN=C(N)N)NC(=O)[C@H](Cc1c[nH]c2ccccc12)NC(=O)[C@H](CSSC[C@H](NC(=O)[C@H](CC(C)C)NC(=O)[C@H](CC(N)=O)NC(=O)[C@@H](NC(=O)[C@@H](N)Cc1ccc(O)cc1)[C@@H](C)CC)C(=O)N[C@@H](Cc1c[nH]c2ccccc12)C(=O)N[C@@H](CCCN=C(N)N)C(=O)N[C@@H](CCC)C(=O)N[C@@H](CCCN=C(N)N)C(=O)N[C@@H](Cc1ccc(O)cc1)C(N)=O)NC(=O)[C@H](CC(C)C)NC(=O)[C@H](CC(N)=O)NC(=O)[C@@H](NC(=O)[C@@H](N)Cc1ccc(O)cc1)[C@@H](C)CC)C(=O)N[C@@H](CCCN=C(N)N)C(=O)N[C@@H](Cc1ccc(O)cc1)C(N)=O` (I: H-YINLCWR[Nva]RY-NH2 / II: H-YINLCWR[Nva]RY-NH2; disulfide I:5-II:5), for which the inhibition constant (Ki) in experiment [1] came to 3410 nM; in experiment [2] it was 44 nM.

As usually defined, the Ki is the dissociation constant of the complex between target and ligand, obtained from inhibition or displacement. The low end stands for a stronger hold on the target, the high end for a looser hold on the target.
